Results published in ChEMBL document CHEMBL3045802, “Synthesis and in vitro antitumor activity of new quinoline, pyrimido[4,5-b]quinoline, [1,2,3]triazino[4,5-b]quinoline, and [1,2,4]triazolo[2,3:3,4]pyrimido[6,5-b]quinoline analogs” (2013).

Tests used:
Format in all cases: functional
SNB-75 = experiment: Cytotoxicity against Homo sapiens (human) SNB75 cells assessed as growth inhibition at 10 uM after 48 hr by coulter counter analysis; settings: SNB-75, 48 h, read-out: GI
SK-MEL-5 = experiment: Cytotoxicity against Homo sapiens (human) SK-MEL-5 cells assessed as growth inhibition at 10 uM after 48 hr by coulter counter analysis; settings: SK-MEL-5, 48 h, read-out: GI
MOLT-4 = experiment: Cytotoxicity against Homo sapiens (human) MOLT4 cells assessed as growth inhibition at 10 uM after 48 hr by coulter counter analysis; settings: MOLT-4, 48 h, read-out: GI
MDA-MB-231 = experiment: Cytotoxicity against Homo sapiens (human) MDA-MB-231 cells assessed as growth inhibition at 10 uM after 48 hr by coulter counter analysis; settings: MDA-MB-231, 48 h, read-out: GI
SK-OV-3 = experiment: Cytotoxicity against Homo sapiens (human) SKOV3 cells assessed as growth inhibition at 10 uM after 48 hr by coulter counter analysis; settings: SK-OV-3, 48 h, read-out: GI
UACC-257 = experiment: Cytotoxicity against Homo sapiens (human) UACC257 cells assessed as growth inhibition at 10 uM after 48 hr by coulter counter analysis; settings: UACC-257, 48 h, read-out: GI
NCI-H460 = experiment: Cytotoxicity against Homo sapiens (human) NCI-H460 cells assessed as growth inhibition at 10 uM after 48 hr by coulter counter analysis; settings: NCI-H460, 48 h, read-out: GI
BT-549 = experiment: Cytotoxicity against Homo sapiens (human) BT549 cells assessed as growth inhibition at 10 uM after 48 hr by coulter counter analysis; settings: BT-549, 48 h, read-out: GI
A498 = experiment: Cytotoxicity against Homo sapiens (human) A498 cells assessed as growth inhibition at 10 uM after 48 hr by coulter counter analysis; settings: A498, 48 h, read-out: GI
NCI-H522 = experiment: Cytotoxicity against Homo sapiens (human) NCI-H522 cells assessed as growth inhibition at 10 uM after 48 hr by coulter counter analysis; settings: NCI-H522, 48 h, read-out: GI
HT-29 = experiment: Cytotoxicity against Homo sapiens (human) HT-29 cells assessed as growth inhibition at 10 uM after 48 hr by coulter counter analysis; settings: HT-29, 48 h, read-out: GI
MCF7 = experiment: Cytotoxicity against Homo sapiens (human) MCF7 cells assessed as growth inhibition at 10 uM after 48 hr by coulter counter analysis; settings: MCF7, 48 h, read-out: GI
SR = experiment: Cytotoxicity against Homo sapiens (human) SR cells assessed as growth inhibition at 10 uM after 48 hr by coulter counter analysis; settings: read-out: GI
MDA-MB-468 = experiment: Cytotoxicity against Homo sapiens (human) MDA-MB-468 cells assessed as growth inhibition at 10 uM after 48 hr by coulter counter analysis; settings: MDA-MB-468, 48 h, read-out: GI
HCT-116 = experiment: Cytotoxicity against Homo sapiens (human) HCT116 cells assessed as growth inhibition at 10 uM after 48 hr by coulter counter analysis; settings: HCT-116, 48 h, read-out: GI
TK-10 = experiment: Cytotoxicity against Homo sapiens (human) TK10 cells assessed as growth inhibition at 10 uM after 48 hr by coulter counter analysis; settings: TK-10, 48 h, read-out: GI
786-0 = experiment: Cytotoxicity against Homo sapiens (human) 786-0 cells assessed as growth inhibition at 10 uM after 48 hr by coulter counter analysis; settings: 786-0, 48 h, read-out: GI
SF-268 = experiment: Cytotoxicity against Homo sapiens (human) SF268 cells assessed as growth inhibition at 10 uM after 48 hr by coulter counter analysis; settings: SF-268, 48 h, read-out: GI
OVCAR-5 = experiment: Cytotoxicity against Homo sapiens (human) OVCAR5 cells assessed as growth inhibition at 10 uM after 48 hr by coulter counter analysis; settings: OVCAR-5, 48 h, read-out: GI
[1] = Cytotoxicity against Homo sapiens (human) NCI-ADR-RES cells assessed as growth inhibition at 10 uM after 48 hr by coulter counter analysis; settings: read-out: GI
OVCAR-3 = experiment: Cytotoxicity against Homo sapiens (human) OVCAR3 cells assessed as growth inhibition at 10 uM after 48 hr by coulter counter analysis; settings: OVCAR-3, 48 h, read-out: GI
SK-MEL-28 = experiment: Cytotoxicity against Homo sapiens (human) SK-MEL-28 cells assessed as growth inhibition at 10 uM after 48 hr by coulter counter analysis; settings: SK-MEL-28, 48 h, read-out: GI
KM12 = experiment: Cytotoxicity against Homo sapiens (human) KM12 cells assessed as growth inhibition at 10 uM after 48 hr by coulter counter analysis; settings: KM12, 48 h, read-out: GI
SW-620 = experiment: Cytotoxicity against Homo sapiens (human) SW620 cells assessed as growth inhibition at 10 uM after 48 hr by coulter counter analysis; settings: SW-620, 48 h, read-out: GI
COLO 205 = experiment: Cytotoxicity against Homo sapiens (human) COLO205 cells assessed as growth inhibition at 10 uM after 48 hr by coulter counter analysis; settings: COLO 205, 48 h, read-out: GI
UO-31 = experiment: Cytotoxicity against Homo sapiens (human) UO31 cells assessed as growth inhibition at 10 uM after 48 hr by coulter counter analysis; settings: UO-31, 48 h, read-out: GI
CCRF-CEM = experiment: Cytotoxicity against Homo sapiens (human) CCRF-CEM cells assessed as growth inhibition at 10 uM after 48 hr by coulter counter analysis; settings: read-out: GI
CAKI-1 = experiment: Cytotoxicity against Homo sapiens (human) Caki1 cells assessed as growth inhibition at 10 uM after 48 hr by coulter counter analysis; settings: CAKI-1, 48 h, read-out: GI
K562 = experiment: Cytotoxicity against Homo sapiens (human) K562 cells assessed as growth inhibition at 10 uM after 48 hr by coulter counter analysis; settings: K562, 48 h, read-out: GI
SF-295 = experiment: Cytotoxicity against Homo sapiens (human) SF295 cells assessed as growth inhibition at 10 uM after 48 hr by coulter counter analysis; settings: SF-295, 48 h, read-out: GI
ACHN = experiment: Cytotoxicity against Homo sapiens (human) ACHN cells assessed as growth inhibition at 10 uM after 48 hr by coulter counter analysis; settings: read-out: GI
SN12C = experiment: Cytotoxicity against Homo sapiens (human) SN12C cells assessed as growth inhibition at 10 uM after 48 hr by coulter counter analysis; settings: read-out: GI
LOX IMVI = experiment: Cytotoxicity against Homo sapiens (human) LOXIMVI cells assessed as growth inhibition at 10 uM after 48 hr by coulter counter analysis; settings: read-out: GI
EKVX = experiment: Cytotoxicity against Homo sapiens (human) EKVX cells assessed as growth inhibition at 10 uM after 48 hr by coulter counter analysis; settings: read-out: GI

| SMILES | inhibition of growth at 10 µM (SNB-75) [%] | inhibition of growth at 10 µM (SK-MEL-5) [%] | inhibition of growth at 10 µM (MOLT-4) [%] | inhibition of growth at 10 µM (MDA-MB-231) [%] | inhibition of growth at 10 µM (SK-OV-3) [%] | inhibition of growth at 10 µM (UACC-257) [%] | inhibition of growth at 10 µM (NCI-H460) [%] | inhibition of growth at 10 µM (BT-549) [%] | inhibition of growth at 10 µM (A498) [%] | inhibition of growth at 10 µM (NCI-H522) [%] | inhibition of growth at 10 µM (HT-29) [%] | inhibition of growth at 10 µM (MCF7) [%] | inhibition of growth at 10 µM (SR) [%] | inhibition of growth at 10 µM (MDA-MB-468) [%] | inhibition of growth at 10 µM (HCT-116) [%] | inhibition of growth at 10 µM (TK-10) [%] | inhibition of growth at 10 µM (786-0) [%] | inhibition of growth at 10 µM (SF-268) [%] | inhibition of growth at 10 µM (OVCAR-5) [%] | inhibition of growth at 10 µM [1] [%] | also measured |
| --- | --- | --- | --- | --- | --- | --- | --- | --- | --- | --- | --- | --- | --- | --- | --- | --- | --- | --- | --- | --- | --- |
| COc1ccc(-c2nc3c(c(=O)[nH]2)C(c2ccc(Cl)cc2)C2=C(CCCC2)N3)cc1OC (stereo unspecified) | 11.2 | 13 | < 10 | 12.6 | < 10 | < 10 | < 10 | < 10 | < 10 | 10.1 | < 10 | 13.5 | < 10 | < 10 | < 10 | < 10 | < 10 | < 10 | < 10 | < 10 | inhibition of growth at 10 µM (OVCAR-3): < 10%; inhibition of growth at 10 µM (SK-MEL-28): < 10%; inhibition of growth at 10 µM (KM12): < 10%; inhibition of growth at 10 µM (SW-620): < 10%; inhibition of growth at 10 µM (COLO 205): < 10%; inhibition of growth at 10 µM (UO-31): 41.7%; inhibition of growth at 10 µM (CCRF-CEM): < 10%; inhibition of growth at 10 µM (CAKI-1): < 10%; inhibition of growth at 10 µM (K562): < 10%; inhibition of growth at 10 µM (SF-295): < 10%; inhibition of growth at 10 µM (ACHN): < 10%; inhibition of growth at 10 µM (SN12C): 12%; inhibition of growth at 10 µM (LOX IMVI): < 10%; inhibition of growth at 10 µM (EKVX): < 10% |
| COc1ccc(C2C3=C(CCCC3)Nc3nc(-c4ccccc4)[nH]c(=O)c32)cc1OC (stereo unspecified) | 28.4 | 10.9 | < 10 | < 10 | < 10 | < 10 | < 10 | < 10 | 13.2 | 14.5 | < 10 | < 10 | < 10 | 21.2 | < 10 | < 10 | < 10 | < 10 | 12.6 | < 10 | inhibition of growth at 10 µM (OVCAR-3): < 10%; inhibition of growth at 10 µM (SK-MEL-28): < 10%; inhibition of growth at 10 µM (KM12): < 10%; inhibition of growth at 10 µM (SW-620): < 10%; inhibition of growth at 10 µM (COLO 205): 15.9%; inhibition of growth at 10 µM (UO-31): 48.6%; inhibition of growth at 10 µM (CCRF-CEM): < 10%; inhibition of growth at 10 µM (CAKI-1): 23.4%; inhibition of growth at 10 µM (K562): < 10%; inhibition of growth at 10 µM (SF-295): < 10%; inhibition of growth at 10 µM (ACHN): 18%; inhibition of growth at 10 µM (SN12C): 10.8%; inhibition of growth at 10 µM (LOX IMVI): < 10%; inhibition of growth at 10 µM (EKVX): < 10% |
| COc1ccc(C2C3=C(CCCC3)Nc3nc(-c4ccc(N(C)C)cc4)[nH]c(=O)c32)cc1OC (stereo unspecified) | < 10 | < 10 | < 10 | < 10 | < 10 | < 10 | < 10 | < 10 | 21.7 | 14.4 | < 10 | < 10 | < 10 | 10.8 | < 10 | < 10 | < 10 | < 10 | < 10 | < 10 | inhibition of growth at 10 µM (OVCAR-3): < 10%; inhibition of growth at 10 µM (SK-MEL-28): < 10%; inhibition of growth at 10 µM (KM12): < 10%; inhibition of growth at 10 µM (SW-620): < 10%; inhibition of growth at 10 µM (COLO 205): < 10%; inhibition of growth at 10 µM (UO-31): 29.4%; inhibition of growth at 10 µM (CCRF-CEM): < 10%; inhibition of growth at 10 µM (CAKI-1): 10.5%; inhibition of growth at 10 µM (K562): < 10%; inhibition of growth at 10 µM (SF-295): < 10%; inhibition of growth at 10 µM (ACHN): < 10%; inhibition of growth at 10 µM (SN12C): 12.9%; inhibition of growth at 10 µM (LOX IMVI): < 10%; inhibition of growth at 10 µM (EKVX): < 10% |
| Clc1ccc(C2C3=C(CCCC3)Nc3ncn4nc(-c5ccccc5)nc4c32)cc1 (stereo unspecified) | 10.5 | < 10 | 11 | 11.1 | < 10 | < 10 | < 10 | < 10 | 20.6 | 23.5 | 14.4 | < 10 | < 10 | 23.1 | < 10 | < 10 | < 10 | < 10 | < 10 | < 10 | inhibition of growth at 10 µM (OVCAR-3): < 10%; inhibition of growth at 10 µM (SK-MEL-28): < 10%; inhibition of growth at 10 µM (KM12): < 10%; inhibition of growth at 10 µM (SW-620): < 10%; inhibition of growth at 10 µM (COLO 205): 11.5%; inhibition of growth at 10 µM (UO-31): 40%; inhibition of growth at 10 µM (CCRF-CEM): < 10%; inhibition of growth at 10 µM (CAKI-1): 12.4%; inhibition of growth at 10 µM (K562): < 10%; inhibition of growth at 10 µM (SF-295): < 10%; inhibition of growth at 10 µM (ACHN): < 10%; inhibition of growth at 10 µM (SN12C): < 10%; inhibition of growth at 10 µM (LOX IMVI): 15.1%; inhibition of growth at 10 µM (EKVX): < 10% |
